The supplement of paper PMC10307832

How the values were obtained:
Experiment in all cases: relative viability (nuclei count vs DMSO), 5 days (fraction); higher = more cells survive
FH535 + OSI-027 = compound: CC1=C(C=CC(=C1)[N+](=O)[O-])NS(=O)(=O)C2=C(C=CC(=C2)Cl)Cl [FH535] + COc1cccc2cc(-c3nc([C@H]4CC[C@H](C(=O)O)CC4)n4ncnc(N)c34)[nH]c12 [OSI-027] (partner 0.5 µM)
How it was run: (§1)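 Relative viability divides the nuclei count in treated wells by that in vehicle wells. Lung cancer cell lines were seeded in 1536-well plates, dosed by pin tool the next day, and fixed and stained after 5 days in one step with final 0.05% Triton X-100, 1% formaldehyde and 1 ug/ml Hoechst. Dosing was a single drug or a fixed anchor-drug dose plus five library-drug doses (not always all listed) in √10 steps, and values are medians of duplicate plates imaged at 4×.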

FH535 + Trametinib = compound: CC1=C(C=CC(=C1)[N+](=O)[O-])NS(=O)(=O)C2=C(C=CC(=C2)Cl)Cl [FH535] + CC(=O)Nc1cccc(-n2c(=O)n(C3CC3)c(=O)c3c(Nc4ccc(I)cc4F)n(C)c(=O)c(C)c32)c1 [Trametinib] (partner 0.02 µM)
How it was run: as §1

FH535 + Luminespib = compound: CC1=C(C=CC(=C1)[N+](=O)[O-])NS(=O)(=O)C2=C(C=CC(=C2)Cl)Cl [FH535] + CCNC(=O)c1noc(-c2cc(C(C)C)c(O)cc2O)c1-c1ccc(CN2CCOCC2)cc1 [Luminespib] (partner 0.01 µM)
How it was run: as §1

FH535 + Vorinostat = compound: CC1=C(C=CC(=C1)[N+](=O)[O-])NS(=O)(=O)C2=C(C=CC(=C2)Cl)Cl [FH535] + O=C(CCCCCCC(=O)Nc1ccccc1)NO [Vorinostat] (partner 1 µM)
How it was run: as §1

FH535 + AZD7762 = compound: CC1=C(C=CC(=C1)[N+](=O)[O-])NS(=O)(=O)C2=C(C=CC(=C2)Cl)Cl [FH535] + NC(=O)Nc1cc(-c2cccc(F)c2)sc1C(=O)N[C@H]1CCCNC1 [AZD7762] (partner 0.2 µM)
How it was run: as §1

Row | Cell Line | relative viability (FH535 + OSI-027; first compound 0.04 µM) | relative viability (FH535 + OSI-027; first compound 0.1265 µM) | relative viability (FH535 + OSI-027; first compound 0.4 µM) | relative viability (FH535 + OSI-027; first compound 1.265 µM) | relative viability (FH535 + Trametinib; first compound 0.04 µM) | relative viability (FH535 + Trametinib; first compound 0.1265 µM) | relative viability (FH535 + Trametinib; first compound 0.4 µM) | relative viability (FH535 + Trametinib; first compound 1.265 µM) | relative viability (FH535 + Luminespib; first compound 0.04 µM) | relative viability (FH535 + Luminespib; first compound 0.1265 µM) | relative viability (FH535 + Luminespib; first compound 0.4 µM) | relative viability (FH535 + Luminespib; first compound 1.265 µM) | relative viability (FH535 + Vorinostat; first compound 0.04 µM) | relative viability (FH535 + Vorinostat; first compound 0.1265 µM) | relative viability (FH535 + Vorinostat; first compound 0.4 µM) | relative viability (FH535 + Vorinostat; first compound 1.265 µM) | relative viability (FH535 + AZD7762; first compound 0.04 µM) | relative viability (FH535 + AZD7762; first compound 0.1265 µM) | relative viability (FH535 + AZD7762; first compound 0.4 µM) | relative viability (FH535 + AZD7762; first compound 1.265 µM)
1 | 201T | 0.728 | 0.484 | 0.719 | 0.538 | 0.718 | 0.72 | 0.69 | 0.562 | 1.04 | 1.03 | 1.03 | 0.735 | 0.905 | 0.948 | 0.855 | 0.929 | 0.594 | 0.728 | 0.62 | 0.696
2 | A-427 | 0.368 | 0.496 | 0.378 | 0.43 | 0.712 | 0.752 | 0.675 | 0.61 | 0.778 | 1.19 | 0.885 | 0.703 | 0.862 | 0.846 | 0.845 | 0.725 | 0.768 | 0.795 | 0.768 | 0.622
3 | ABC-1 | 0.446 | 0.418 | 0.452 | 0.414 | – | – | – | – | 0.543 | 0.861 | 0.627 | 0.337 | 0.944 | 1 | 0.934 | 0.607 | 0.706 | 0.664 | 0.756 | 0.549
4 | BEN | 0.287 | 0.281 | 0.313 | 0.27 | 0.931 | 0.99 | 0.948 | 0.666 | 0.211 | 0.466 | 0.285 | 0.119 | 0.51 | 0.583 | 0.548 | 0.525 | 0.6 | 0.691 | 0.496 | 0.507
5 | CAL-12T | 0.63 | 0.688 | 0.504 | 0.407 | 0.336 | 0.438 | 0.367 | 0.347 | 0.331 | 0.496 | 0.727 | 0.536 | 0.562 | 0.927 | 0.802 | 0.492 | 0.594 | 0.643 | 0.536 | 0.397
6 | COR-L23 | 0.778 | 0.621 | 0.643 | 0.408 | 0.52 | 0.604 | 0.515 | 0.371 | 0.73 | 0.612 | 0.5 | 0.435 | 0.442 | 0.462 | 0.422 | 0.343 | – | – | – | –
7 | COR-L 105 | 0.691 | 0.701 | 0.613 | 0.608 | 0.483 | 0.404 | 0.422 | 0.444 | 0.499 | 0.952 | 0.738 | 0.671 | 0.793 | 0.857 | 0.848 | 0.876 | – | – | – | –
8 | ChaGo-K-1 | 0.479 | 0.596 | 0.507 | 0.432 | 0.871 | 0.896 | 0.742 | 0.503 | 0.653 | 0.665 | 0.55 | 0.576 | 0.469 | 0.732 | 0.693 | 0.59 | 0.797 | 0.927 | 0.771 | 0.729
